From patent US7547713B2, “O-pyridinequinone derivatives, the composition containing the derivatives, the process for preparation of the derivatives and the use of the derivatives” (priority 2002, dated 2009)
“Also recorded” adds a separate entry of the source. Like-named read-outs stand apart in the source and are kept apart here.

What was measured:
[1] = test system: mouse skin capillary permeability; experiment: Increment of the mouse skin capillary permeability (xylene, Evans blue); assay type: in vivo; details: OD at 590 nm, blank control 0.442 ± 0.240, lower is better
From the text: One hundred and seventy healthy male mice were divided randomly into 17 groups, 10 mice per group, namely, the blank control group, the high, medium, and low dosage groups of 5,6-di(m-acetylphenylamino)-2,3-pyridindione, respectively, the high, medium, and low dosage groups of 5,6-di(m-carboxylphenylamino)-2,3-pyridindione, respectively, the high, medium, and low dosage groups of 5,6-di(p-carboxylphenylamino)-2,3-pyridindione, respectively, the high, medium, and low dosage groups of 5,6-di(p-chlorophenylamino)-2,3-pyridindione, respectively, the high, medium, and low dosage groups of 5,6-di(p-tolylamino)-2,3-pyridindione, and the aspirin group as the positive control group. The mice were administered via gastro infusion according to the Table 5, and 1 hour later, 0.5%. Evans blue saline was injected into the mice via tail vain at 0.1 ml/10 g, then xylene with a dosage of 0.03 ml/mouse was applied to the mice in the shaved area at the middle belly. The mice were killed by cervical dislocation 20 min later, and their belly skin was peeled off, where the blue area was removed by using a biopsy punch, broken up by using surgery scissors, and put into covered glass tubes. Seven milliliters of acetone/water (7:3, v/v) solution was added into each tube, which was then stored in the dark and was gently shaken up 2-3 times daily. After 3 days, the solution in each tube was centrifuged at 2000 rpm for 10 min, and the supernatant was measured for optical density at 590 nm with the absorption of acetone/water (7:3, v/v) solution as the baseline. The lower the OD value, the better the anti-inflammatory effect.

COX-1 = COX-1 (Homo sapiens, UniProt P23219); experiment: Inhibition of COX-1 (TMPD/arachidonic acid, absorption at 611 nm); assay type: biochemical
Chain of COX-1 (P23219 24-599): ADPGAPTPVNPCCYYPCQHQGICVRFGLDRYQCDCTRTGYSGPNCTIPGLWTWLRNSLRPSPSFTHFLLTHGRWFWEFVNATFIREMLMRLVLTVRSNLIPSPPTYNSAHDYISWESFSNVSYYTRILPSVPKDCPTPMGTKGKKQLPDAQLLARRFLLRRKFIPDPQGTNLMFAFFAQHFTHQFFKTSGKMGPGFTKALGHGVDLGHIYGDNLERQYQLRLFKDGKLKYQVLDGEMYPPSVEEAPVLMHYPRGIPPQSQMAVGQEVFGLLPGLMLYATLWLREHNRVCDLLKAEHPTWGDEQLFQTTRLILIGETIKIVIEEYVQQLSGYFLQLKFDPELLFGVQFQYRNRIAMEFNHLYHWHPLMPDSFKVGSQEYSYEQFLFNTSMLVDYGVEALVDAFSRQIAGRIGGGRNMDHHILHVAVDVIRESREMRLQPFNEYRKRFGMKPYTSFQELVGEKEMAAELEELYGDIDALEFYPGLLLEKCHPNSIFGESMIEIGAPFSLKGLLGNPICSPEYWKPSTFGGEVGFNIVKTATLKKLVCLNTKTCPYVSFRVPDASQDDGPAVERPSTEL
Description: Methods: 4 μl of COX-1 was added to 960 μl 0.1 M Tris-HCl in a cell. The mixture was equilibrated for 30s, and then added with 1 μl inhibitor. After 2 min, 15 μl TMPD and 15 μl A.A. were immediately added to the mixture and mixed well. After 7 min, the absorption was measured at 611 nm.

[2] = test system: animal model of anti-histamine; experiment: Animal model of anti-histamine (Evans blue, dyed back skin); assay type: in vivo; details: rat; for Inhibition rate (%): histamine s.c., Evans blue; for Absorbency(A): blank control 0.099
Description: Forty healthy male rats were divided randomly into 4 groups, […], namely, the blank control group, the 5,6-di(m-acetylphenylamino)-2,3-pyridindione group, the 5,6-di(m-carboxylphenylamino)-2,3-pyridindione group, and the aspirin group as the positive control group. The compounds with dosage listed in Table 3 were administered orally to the rats, respectively, then 0.1 ml of […] was administered subcutaneously, and then 1 ml of 1% Evans blue was immediately injected intravenously under the tongue.

COX-2 = target: T1, COX-2 (Homo sapiens, UniProt P35354); experiment: Inhibition of COX-2 in COLO 205 cell line (Prostaglandin E2 EIA); assay type: cell-based
T1 construct: host or cells: COLO 205
T1 sequence (P35354 18-604): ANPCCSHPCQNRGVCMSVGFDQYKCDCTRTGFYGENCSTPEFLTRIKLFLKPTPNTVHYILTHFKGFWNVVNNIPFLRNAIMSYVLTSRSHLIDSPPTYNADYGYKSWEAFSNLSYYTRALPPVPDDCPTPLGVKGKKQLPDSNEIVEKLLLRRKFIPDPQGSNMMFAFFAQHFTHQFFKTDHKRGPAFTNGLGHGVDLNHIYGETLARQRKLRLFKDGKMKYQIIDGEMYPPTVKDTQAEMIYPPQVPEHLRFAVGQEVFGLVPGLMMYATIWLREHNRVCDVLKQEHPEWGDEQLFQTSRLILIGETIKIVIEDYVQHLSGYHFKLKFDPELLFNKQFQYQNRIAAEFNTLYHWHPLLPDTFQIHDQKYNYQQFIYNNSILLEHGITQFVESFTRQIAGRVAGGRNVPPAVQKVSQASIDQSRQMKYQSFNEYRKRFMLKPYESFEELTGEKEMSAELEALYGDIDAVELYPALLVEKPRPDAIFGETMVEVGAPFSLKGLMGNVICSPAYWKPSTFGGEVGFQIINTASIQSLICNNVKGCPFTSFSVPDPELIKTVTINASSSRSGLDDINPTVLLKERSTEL
From the text: Enzyme-Linked ImmunoSorbent Assay Kit (Prostaglandins E2 (PEG2) EIA Kit-Monoclonal, Cayman Chemical company (U.S.A)).

mice = details: mouse, in vivo; for Death rate: both, 7 days
Description: Toxicological test of 5,6-di(m-acetylphenylamino)-2,3-pyridindione Single dose administration was used. 5,6-di(m-acetylphenylamino)-2,3-pyridindione was prepared to the required concentration with the presence of 0.5% DMSO. Sixty healthy male mice and 60 healthy female mice were divided randomly into 10 mice per group, 12 groups, among which 5 groups were administered by tail vein injection, and 5 groups were administered via gastro infusion, and the other two groups were used as negative controls. The activities and death of mice were observed and recorded for 7 days after the administration of the compound.

[3] = test system: rat model of toe swelling; experiment: Rat model of toe swelling (3% formaldehyde); assay type: in vivo; details: toe volume 2 hours after injection
Description: Forty healthy male rats were divided randomly into 4 groups, 10 rats per group, namely, the blank control group, the 5,6-di(m-acetylphenylamino)-2,3-pyridindione group, the 5,6-di(m-carboxylphenylamino)-2,3-pyridindione group, and the aspirin group as the drug control group. 0.1 ml of inflammation inducer (3% formaldehyde) was subcutaneously injected into the right toe of the hind leg of each rat. After 24 hours, the compounds with dosage listed in Table 1 were injected into the rats, respectively. The volume of the toes was measured 2 hours later after injection by using the Water Volume Method described in the Methodology of Pharmacology Experiments, 2nd edition, Shu-yun Xu, etc., People's Medical Publishing House, Beijing, 1991.

[4] = test system: mouse model of auricle swelling; experiment: Mouse model of auricle swelling (xylene); assay type: in vivo; details: xylene after 60 min, killed 4 hours later
Description: Forty healthy male mice were divided randomly into 4 groups, 10 mice per group, namely, the blank control group, the 5,6-di(m-acetylphenylamino)-2,3-pyridindione group, the 5,6-di(m-carboxylphenylamino)-2,3-pyridindione group, and the aspirin group as the drug control group. The compounds with dosage listed in Table 2 were administered orally to the […], respectively. After 60 min 0.05 ml xylene (analytical grade) was applied on the right ear of each mouse, respectively. The mice were killed 4 hours later, a disk of ear tissue was removed from the same location of both ears using a 5.5-mm biopsy punch, then each of the ear disks was weighed, and the rates of auricle swelling inhibition were calculated, as listed in Table 2.

[5] = gastro infusion 1.0 mg/kg (low dosage)
[6] = gastro infusion 3.2 mg/kg (medium dosage)
[7] = gastro infusion 6.5 mg/kg (high dosage)
[8] = 5 mg/kg injected 24 h after formaldehyde

## Cc1ccc(NC2=CC(=O)C(=O)N=C2Nc2ccc(C)cc2)cc1 [5,6-di(p-tolylamino)-2,3-pyridindione]
[1]; [5]
  OD (A): 0.049 ± 0.049 A
[1]; [6]
  OD (A): 0.011 ± 0.022 A
[1]; [7]
  OD (A): 0.051 ± 0.042 A

## CC(=O)c1cccc(NC2=CC(=O)C(=O)N=C2Nc2cccc(C(C)=O)c2)c1 [5,6-di(m-acetylphenylamino)-2,3-pyridindione]
COX-1; 1 μl of 10 mM inhibitor in dimethylsulfoxide, compared with control group without inhibitors, FIG. 1
  inhibition effect on COX-1: no obvious inhibition effects; also recorded: almost no inhibition effect
[2]; 10 mg/kg orally
  Inhibition rate (%): 19%
  Absorbency(A): 0.081 A
COX-2; COLO 205 cell line, PGE2 EIA, FIG. 2
  inhibition of the activity of COX-2: higher inhibition effects on COX-2 than the former two
COX-2; FIG. 2 legend
  inhibition of the growth of the COLO205 cells ex vivo: inhibits the growth of the COLO205 cells ex vivo
mice; 720 mg/kg
  Death rate: 0
  Toxic reaction: normal
mice; 1030 mg/kg
  Death rate: 0
  Toxic reaction: normal
mice; 1470 mg/kg
  Death rate: 0
  Toxic reaction: normal
mice; 2100 mg/kg
  Death rate: 0
  Toxic reaction: normal
mice; 3000 mg/kg
  Death rate: 0
  Toxic reaction: normal
mice
  death of the animals: No death of the animals was observed
  toxic reaction in aspect of activity, reactivity, back hair, dejecta: normal
[3]; [8]
  Inhibition rate (%) of toe swelling: 62.5%
[4]; 30 mg/kg orally
  Inhibition rate (%) of auricle swelling: 83.2%
[1]; [5]
  OD (A): 0.241 ± 0.121 A
[1]; [6]
  OD (A): 0.035 ± 0.049 A
[1]; [7]
  OD (A): 0.019 ± 0.018 A

## CC(=O)Oc1ccccc1C(=O)O [Aspirin, reference compound]
COX-1
  inhibition effect on COX-1: inhibited
[2]; 160 mg/kg orally
  Inhibition rate (%): 13%
  Absorbency(A): 0.086 A
[3]; 50 mg/kg injected 24 h after formaldehyde
  Inhibition rate (%) of toe swelling: 10.1%
[4]; 100 mg/kg orally
  Inhibition rate (%) of auricle swelling: 30.1%

## O=C1C=C(Nc2ccc(C(=O)O)cc2)C(Nc2ccc(C(=O)O)cc2)=NC1=O [5,6-di(p-carboxylphenylamino)-2,3-pyridindione]
[1]; [5]
  OD (A): 0.089 ± 0.054 A
[1]; [6]
  OD (A): 0.043 ± 0.023 A
[1]; [7]
  OD (A): 0.030 ± 0.012 A

## O=C1C=C(Nc2ccc(Cl)cc2)C(Nc2ccc(Cl)cc2)=NC1=O [5,6-di(p-chlorophenylamino)-2,3-pyridindione]
[1]; [5]
  OD (A): 0.142 ± 0.098 A
[1]; [6]
  OD (A): 0.035 ± 0.026 A
[1]; [7]
  OD (A): 0.015 ± 0.015 A

## O=C1C=C(Nc2cccc(C(=O)O)c2)C(Nc2cccc(C(=O)O)c2)=NC1=O [5,6-di(m-carboxylphenylamino)-2,3-pyridindione]
[2]; 10 mg/kg orally
  Inhibition rate (%): 16%
  Absorbency(A): 0.084 A
[3]; [8]
  Inhibition rate (%) of toe swelling: 45.5%
[4]; 30 mg/kg orally
  Inhibition rate (%) of auricle swelling: 65.5%
[1]; [5]
  OD (A): 0.038 ± 0.026 A
[1]; [6]
  OD (A): 0.030 ± 0.010 A
[1]; [7]
  OD (A): 0.036 ± 0.011 A
